Tested on: test plant species
Test: Post-emergent herbicidal activity test (greenhouse, foliar spray, visual growth reduction)
Format: in vivo
Conditions: post-emergence, 336 h, ECHCG: barnyardgrass (Echinochloa crus-galli), 140 g ai/ha, 14 days after application, read-out: Visual Growth Reduction (%) 14 Days After Application, ECHCG
Method in brief: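 Visual percent injury (0-100) rated 14 d after treatment, relative to nontreated and solvent-blank plants. Test plants at first or second true leaf stage received an overhead track-sprayer application at 187 L/ha. Compounds were formulated in aqueous acetone/DMSO carrier containing crop oil concentrate and X-77 surfactant.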

Structure (SMILES)	pest or weed control at 140 g/ha [%]
COC(=O)c1nc(-c2ccc(OC)cc2)c(F)cc1Cl [F365, Methyl 3-chloro-5-fluoro-6-(4-methoxyphenyl) picolinate]	0 to 29
COC(=O)c1nc(-c2cc(F)c(C(F)(F)F)cc2F)ccc1Cl [F323, Methyl 3-chloro-6-(2,5-difluoro-4-(trifluoromethyl)phenyl)picolinate]	0 to 29

Same assay, conditions: post-emergence, 336 h, IPOHE: ivy-leaf morning glory (Ipomoea hederacea), 140 g ai/ha, 14 days after application, read-out: Visual Growth Reduction (%) 14 Days After Application, IPOHE

Structure (SMILES)	pest or weed control at 140 g/ha [%]
COC(=O)c1nc(-c2ccc(OC)cc2)c(F)cc1Cl [F365, Methyl 3-chloro-5-fluoro-6-(4-methoxyphenyl) picolinate]	0 to 29
COC(=O)c1nc(-c2cc(F)c(C(F)(F)F)cc2F)ccc1Cl [F323, Methyl 3-chloro-6-(2,5-difluoro-4-(trifluoromethyl)phenyl)picolinate]	95 to 100

Same assay, conditions: post-emergence, 336 h, KCHSC: kochia (Bassia scoparia), 140 g ai/ha, 14 days after application, read-out: Visual Growth Reduction (%) 14 Days After Application, KCHSC

Structure (SMILES)	pest or weed control at 140 g/ha [%]
COC(=O)c1nc(-c2ccc(OC)cc2)c(F)cc1Cl [F365, Methyl 3-chloro-5-fluoro-6-(4-methoxyphenyl) picolinate]	0 to 29
COC(=O)c1nc(-c2cc(F)c(C(F)(F)F)cc2F)ccc1Cl [F323, Methyl 3-chloro-6-(2,5-difluoro-4-(trifluoromethyl)phenyl)picolinate]	30 to 44

Same assay, conditions: post-emergence, 336 h, ORYSA: rice (Oryza sativa), 140 g ai/ha, 14 days after application, read-out: Visual Growth Reduction (%) 14 Days After Application, ORYSA

Structure (SMILES)	pest or weed control at 140 g/ha [%]
COC(=O)c1nc(-c2ccc(OC)cc2)c(F)cc1Cl [F365, Methyl 3-chloro-5-fluoro-6-(4-methoxyphenyl) picolinate]	0 to 29
COC(=O)c1nc(-c2cc(F)c(C(F)(F)F)cc2F)ccc1Cl [F323, Methyl 3-chloro-6-(2,5-difluoro-4-(trifluoromethyl)phenyl)picolinate]	0 to 29

Same assay, conditions: post-emergence, 336 h, SETFA: giant foxtail (Setaria faberi), 140 g ai/ha, 14 days after application, read-out: Visual Growth Reduction (%) 14 Days After Application, SETFA

Structure (SMILES)	pest or weed control at 140 g/ha [%]
COC(=O)c1nc(-c2ccc(OC)cc2)c(F)cc1Cl [F365, Methyl 3-chloro-5-fluoro-6-(4-methoxyphenyl) picolinate]	0 to 29
COC(=O)c1nc(-c2cc(F)c(C(F)(F)F)cc2F)ccc1Cl [F323, Methyl 3-chloro-6-(2,5-difluoro-4-(trifluoromethyl)phenyl)picolinate]	30 to 44

Same assay, conditions: post-emergence, 336 h, SORVU: grain sorghum (Sorghum vulgare), 140 g ai/ha, 14 days after application, read-out: Visual Growth Reduction (%) 14 Days After Application, SORVU

Structure (SMILES)	pest or weed control at 140 g/ha [%]
COC(=O)c1nc(-c2ccc(OC)cc2)c(F)cc1Cl [F365, Methyl 3-chloro-5-fluoro-6-(4-methoxyphenyl) picolinate]	0 to 29
COC(=O)c1nc(-c2cc(F)c(C(F)(F)F)cc2F)ccc1Cl [F323, Methyl 3-chloro-6-(2,5-difluoro-4-(trifluoromethyl)phenyl)picolinate]	85 to 94

Same assay, conditions: post-emergence, 336 h, STEME: common chickweed (Stellaria media), 140 g ai/ha, 14 days after application, read-out: Visual Growth Reduction (%) 14 Days After Application, STEME

Structure (SMILES)	pest or weed control at 140 g/ha [%]
COC(=O)c1nc(-c2ccc(OC)cc2)c(F)cc1Cl [F365, Methyl 3-chloro-5-fluoro-6-(4-methoxyphenyl) picolinate]	0 to 29
COC(=O)c1nc(-c2cc(F)c(C(F)(F)F)cc2F)ccc1Cl [F323, Methyl 3-chloro-6-(2,5-difluoro-4-(trifluoromethyl)phenyl)picolinate]	0 to 29

Same assay, conditions: post-emergence, 336 h, TRZAS: wheat, spring (Triticum aestivum), 140 g ai/ha, 14 days after application, read-out: Visual Growth Reduction (%) 14 Days After Application, TRZAS

Structure (SMILES)	pest or weed control at 140 g/ha [%]
COC(=O)c1nc(-c2ccc(OC)cc2)c(F)cc1Cl [F365, Methyl 3-chloro-5-fluoro-6-(4-methoxyphenyl) picolinate]	0 to 29
COC(=O)c1nc(-c2cc(F)c(C(F)(F)F)cc2F)ccc1Cl [F323, Methyl 3-chloro-6-(2,5-difluoro-4-(trifluoromethyl)phenyl)picolinate]	0 to 29

Same assay, conditions: post-emergence, 336 h, blackgrass (Alopecurus myosuroides), 14 Days After Application, 140 g ai/ha, read-out: Visual Growth Reduction (%) ALOMY

Structure (SMILES)	pest or weed control at 140 g/ha [%]
COC(=O)c1nc(-c2ccc(OC)cc2)c(F)cc1Cl [F365, Methyl 3-chloro-5-fluoro-6-(4-methoxyphenyl) picolinate]	0 to 29
COC(=O)c1nc(-c2cc(F)c(C(F)(F)F)cc2F)ccc1Cl [F323, Methyl 3-chloro-6-(2,5-difluoro-4-(trifluoromethyl)phenyl)picolinate]	0 to 29

Same assay, conditions: post-emergence, 336 h, canada thistle (Cirsium arvense), 14 Days After Application, 140 g ai/ha, read-out: Visual Growth Reduction (%) CIRAR

Structure (SMILES)	pest or weed control at 140 g/ha [%]
COC(=O)c1nc(-c2ccc(OC)cc2)c(F)cc1Cl [F365, Methyl 3-chloro-5-fluoro-6-(4-methoxyphenyl) picolinate]	0 to 29
COC(=O)c1nc(-c2cc(F)c(C(F)(F)F)cc2F)ccc1Cl [F323, Methyl 3-chloro-6-(2,5-difluoro-4-(trifluoromethyl)phenyl)picolinate]	45 to 59

Same assay, conditions: post-emergence, 336 h, crabgrass (Digitaria sanguinalis), 14 Days After Application, 140 g ai/ha, read-out: Visual Growth Reduction (%) DIGSA

Structure (SMILES)	pest or weed control at 140 g/ha [%]
COC(=O)c1nc(-c2ccc(OC)cc2)c(F)cc1Cl [F365, Methyl 3-chloro-5-fluoro-6-(4-methoxyphenyl) picolinate]	0 to 29
COC(=O)c1nc(-c2cc(F)c(C(F)(F)F)cc2F)ccc1Cl [F323, Methyl 3-chloro-6-(2,5-difluoro-4-(trifluoromethyl)phenyl)picolinate]	75 to 84

Same assay, conditions: post-emergence, 336 h, lambsquarters (Chenopodium album), 14 Days After Application, 140 g ai/ha, read-out: Visual Growth Reduction (%) CHEAL

Structure (SMILES)	pest or weed control at 140 g/ha [%]
COC(=O)c1nc(-c2ccc(OC)cc2)c(F)cc1Cl [F365, Methyl 3-chloro-5-fluoro-6-(4-methoxyphenyl) picolinate]	0 to 29
COC(=O)c1nc(-c2cc(F)c(C(F)(F)F)cc2F)ccc1Cl [F323, Methyl 3-chloro-6-(2,5-difluoro-4-(trifluoromethyl)phenyl)picolinate]	85 to 94

Same assay, conditions: post-emergence, 336 h, redroot pigweed (Amaranthus retroflexus), 14 Days After Application, 140 g ai/ha, read-out: Visual Growth Reduction (%) AMARE

Structure (SMILES)	pest or weed control at 140 g/ha [%]
COC(=O)c1nc(-c2ccc(OC)cc2)c(F)cc1Cl [F365, Methyl 3-chloro-5-fluoro-6-(4-methoxyphenyl) picolinate]	0 to 29
COC(=O)c1nc(-c2cc(F)c(C(F)(F)F)cc2F)ccc1Cl [F323, Methyl 3-chloro-6-(2,5-difluoro-4-(trifluoromethyl)phenyl)picolinate]	75 to 84

Same assay, conditions: post-emergence, 336 h, wild oat (Avena fatua), 14 Days After Application, 140 g ai/ha, read-out: Visual Growth Reduction (%) AVEFA

Structure (SMILES)	pest or weed control at 140 g/ha [%]
COC(=O)c1nc(-c2ccc(OC)cc2)c(F)cc1Cl [F365, Methyl 3-chloro-5-fluoro-6-(4-methoxyphenyl) picolinate]	0 to 29
COC(=O)c1nc(-c2cc(F)c(C(F)(F)F)cc2F)ccc1Cl [F323, Methyl 3-chloro-6-(2,5-difluoro-4-(trifluoromethyl)phenyl)picolinate]	0 to 29

Same assay, conditions: post-emergence, 336 h, yellow nutsedge (Cyperus esculentus), 14 Days After Application, 140 g ai/ha, read-out: Visual Growth Reduction (%) CYPES

Structure (SMILES)	pest or weed control at 140 g/ha [%]
COC(=O)c1nc(-c2ccc(OC)cc2)c(F)cc1Cl [F365, Methyl 3-chloro-5-fluoro-6-(4-methoxyphenyl) picolinate]	0 to 29
COC(=O)c1nc(-c2cc(F)c(C(F)(F)F)cc2F)ccc1Cl [F323, Methyl 3-chloro-6-(2,5-difluoro-4-(trifluoromethyl)phenyl)picolinate]	45 to 59

Reference: patent publication US20230017045A1, “PYRIDINE AND PYRIMIDINE CARBOXYLATE HERBICIDES AND METHODS OF USE THEREOF” (Dow AgroSciences LLC, priority 2017, published 2023)
